Values of other authors in US10251905B2, “Tissue maintenance” (Hibernation Therapeutics, A KF LLC, priority 2006, dated 2019).

What was measured:
[1] = target: T1, NK(3) receptor (Homo sapiens, UniProt P29371); settings: relative to NK(1)
T1 sequence (P29371 1-465): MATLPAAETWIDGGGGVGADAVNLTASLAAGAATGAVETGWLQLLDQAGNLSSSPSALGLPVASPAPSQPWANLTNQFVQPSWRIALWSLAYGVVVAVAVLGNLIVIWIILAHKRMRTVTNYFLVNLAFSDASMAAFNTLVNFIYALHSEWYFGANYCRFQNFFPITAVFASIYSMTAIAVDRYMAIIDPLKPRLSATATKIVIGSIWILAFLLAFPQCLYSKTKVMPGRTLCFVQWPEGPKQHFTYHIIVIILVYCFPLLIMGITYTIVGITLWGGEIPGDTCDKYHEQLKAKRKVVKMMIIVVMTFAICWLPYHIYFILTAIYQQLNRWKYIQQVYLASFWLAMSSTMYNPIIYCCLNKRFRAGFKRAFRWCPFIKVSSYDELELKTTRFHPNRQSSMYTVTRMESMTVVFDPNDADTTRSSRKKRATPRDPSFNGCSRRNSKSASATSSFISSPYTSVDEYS

[2] = target: T2, NK(2) receptor (Homo sapiens, UniProt P21452); settings: relative to NK(1)
T2 sequence (P21452 1-398): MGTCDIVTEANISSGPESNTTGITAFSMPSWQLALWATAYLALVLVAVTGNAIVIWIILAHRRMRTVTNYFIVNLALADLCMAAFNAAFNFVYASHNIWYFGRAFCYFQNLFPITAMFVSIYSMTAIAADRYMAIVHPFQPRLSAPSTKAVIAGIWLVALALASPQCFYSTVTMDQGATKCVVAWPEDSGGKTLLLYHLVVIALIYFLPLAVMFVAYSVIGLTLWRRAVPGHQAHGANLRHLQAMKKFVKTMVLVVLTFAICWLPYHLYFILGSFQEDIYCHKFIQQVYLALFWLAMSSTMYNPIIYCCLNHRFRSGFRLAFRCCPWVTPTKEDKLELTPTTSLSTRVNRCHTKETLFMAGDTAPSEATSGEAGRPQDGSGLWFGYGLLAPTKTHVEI

[3] = target: human NK(1) receptor (Homo sapiens, UniProt P25103)
human NK(1) receptor, sequence (P25103 whole entry): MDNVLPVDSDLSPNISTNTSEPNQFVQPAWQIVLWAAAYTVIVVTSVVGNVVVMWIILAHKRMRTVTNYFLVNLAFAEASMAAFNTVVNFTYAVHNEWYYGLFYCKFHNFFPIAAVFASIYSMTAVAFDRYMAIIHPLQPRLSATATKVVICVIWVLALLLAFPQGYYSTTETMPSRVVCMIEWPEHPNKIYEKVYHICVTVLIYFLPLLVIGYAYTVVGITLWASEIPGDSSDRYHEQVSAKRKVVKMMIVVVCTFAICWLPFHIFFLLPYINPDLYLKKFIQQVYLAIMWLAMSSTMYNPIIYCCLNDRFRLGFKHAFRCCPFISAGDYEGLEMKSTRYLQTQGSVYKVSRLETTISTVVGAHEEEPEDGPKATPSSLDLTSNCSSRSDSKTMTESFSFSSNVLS

| Structure (SMILES) | selectivity toward NK(3) receptors [1] | selectivity toward NK(2) receptors [2] | Ki [3] | half life in the blood |
| --- | --- | --- | --- | --- |
| Cc1cccc(C)c1NC(=O)C[C@H]1CCN(C(=O)c2cc(C(F)(F)F)cc(C(F)(F)F)c2)[C@@H](Cc2ccccc2)C1.O=C(O)C[C@H](O)C(=O)O (relative stereo) [R116301, (2R-trans)-4-[1-[3,5-bis(trifluoromethyl)benzoyl]-2-(phenylmethyl)-4-piperidinyl]-N-(2,6-dimethylphenyl)-1-acetamide (S)-Hydroxybutanedioate] | over 200 fold | over 200 fold | 0.45 nM |  |
| Nc1ncnc2c1ncn2[C@@H]1O[C@H](CO)[C@@H](O)[C@H]1O [adenosine] |  |  |  | about 10 seconds |
